In ChEMBL document CHEMBL2321831, “Design, synthesis, and biological evaluations of novel 7-[7-amino-7-methyl-5-azaspiro[2.4]heptan-5-yl]-8-methoxyquinolines with potent antibacterial activity against respiratory pathogens” (J Med Chem, 2013):
≈ marks a conversion by molar mass, not a printed value. Calls of active or inactive are those of the source. The rule behind the calls is not given here.

Assays:
Chlamydia pneumoniae [1] = test: Ratio of MIC for levofloxacin to compound MIC for Chlamydophila pneumoniae AR39; type: functional
[2] = system: Mycoplasmoides pneumoniae; test: Ratio of MIC for levofloxacin to compound MIC for Mycoplasma pneumoniae ATCC 29085; type: functional
[3] = system: Mycoplasmoides pneumoniae; test: Ratio of MIC for levofloxacin to compound MIC for Mycoplasma pneumoniae 18-1; type: functional
Bacillus subtilis [4] = test: Ratio of MIC for levofloxacin to compound MIC for Bacillus subtilis IID 685; type: functional
Enterococcus faecalis [5] = test: Ratio of MIC for levofloxacin to compound MIC for Enterococcus faecalis ATCC 19433; type: functional
Streptococcus pyogenes [6] = test: Ratio of MIC for levofloxacin to compound MIC for Streptococcus pyogenes G-36; type: functional
Streptococcus pneumoniae [7] = test: Ratio of MIC for levofloxacin to compound MIC for penicillin-susceptible Streptococcus pneumoniae J24; type: functional
[8] = system: Staphylococcus epidermidis; test: Ratio of MIC for levofloxacin to compound MIC for Staphylococcus epidermidis 56500; type: functional
Staphylococcus aureus [9] = test: Ratio of MIC for levofloxacin to compound MIC for Staphylococcus aureus FDA 209-P; type: functional
Streptococcus pneumoniae [10] = test: Antibacterial activity against quinolone-sensitive Streptococcus pneumoniae infected in po dosed CBA/JNCrj mouse pneumonia model administered bid measured day after final administration of drug; type: functional, organism-based
Streptococcus pneumoniae [11] = test: Antibacterial activity against quinolone-resistant Streptococcus pneumoniae infected in sc dosed CBA/JNCrj mouse pneumonia model administered bid measured day after final administration of drug; type: functional, organism-based
Mus musculus [12] = test: Toxicity in SLC:ddY mouse assessed as induction of micronucleus formation at 150 mg/kg, iv after 24 to 48 hrs by fluorescence microscopic analysis; type: organism-based; design: dose 150 mg/kg, route intravenous; settings: in vivo
Mus musculus [13] = test: Toxicity in SLC:ddY mouse assessed as induction of micronucleus formation at 100 mg/kg, iv after 24 to 48 hrs by fluorescence microscopic analysis; type: organism-based; design: dose 100 mg/kg, route intravenous; settings: in vivo
Mus musculus [14] = test: Toxicity in SLC:ddY mouse assessed as induction of micronucleus formation at 50 mg/kg, iv after 24 to 48 hrs by fluorescence microscopic analysis; type: organism-based; design: dose 50 mg/kg, route intravenous; settings: in vivo
Mus musculus [15] = test: Toxicity in SLC:ddY mouse assessed as mortality at 150 mg/kg, iv after 7 days; type: organism-based; design: dose 150 mg/kg, route intravenous; settings: in vivo, 168 h
Mus musculus [16] = test: Toxicity in SLC:ddY mouse assessed as mortality at 100 mg/kg, iv after 7 days; type: organism-based; design: dose 100 mg/kg, route intravenous; settings: in vivo, 168 h
Mus musculus [17] = test: Toxicity in SLC:ddY mouse assessed as mortality at 50 mg/kg, iv after 7 days; type: organism-based; design: dose 50 mg/kg, route intravenous; settings: in vivo, 168 h
[18] = Primary phase half life in cynomolgus monkey serum at 5 mg/kg, iv; type: ADME, organism-based, Macaca fascicularis; design: dose 5 mg/kg, route intravenous; settings: read-out: alphat1/2 (converted)
[19] = AUC (0 to 8 hrs) in cynomolgus monkey serum at 5 mg/kg, iv; type: ADME, organism-based, Macaca fascicularis, Plasma; design: time < 8 hr, dose 5 mg/kg, route intravenous
[20] = Drug uptake in cynomolgus monkey serum at 5 mg/kg, iv after 5 mins; type: ADME, organism-based, Macaca fascicularis; design: dose 5 mg/kg, route intravenous; settings: read-out: Drug uptake
[21] = Drug recovery in cynomolgus monkey urine at 5 mg/kg, po after 24 hrs; type: ADME, organism-based, Macaca fascicularis; design: dose 5 mg/kg, route oral; settings: read-out: Drug recovery
[22] = Bioavailability in cynomolgus monkey at 5 mg/kg, po; type: ADME, organism-based, Macaca fascicularis; settings: in vivo
[23] = Half life in cynomolgus monkey serum at 5 mg/kg, po; type: ADME, organism-based, Macaca fascicularis; design: dose 5 mg/kg, route oral
[24] = Cmax in cynomolgus monkey serum at 5 mg/kg, po; type: ADME, organism-based, Macaca fascicularis; design: dose 5 mg/kg, route oral
[25] = AUC (0 to 24 hrs) in cynomolgus monkey serum at 5 mg/kg, po; type: ADME, organism-based, Macaca fascicularis, Plasma; design: time < 24 hr, dose 5 mg/kg, route oral
[26] = Drug recovery in Crj:CD rat urine at 5 mg/kg, po after 24 hrs; type: ADME, organism-based; design: dose 5 mg/kg, route oral; settings: read-out: Drug recovery
[27] = Drug recovery in cynomolgus monkey urine at 5 mg/kg, iv after 24 hrs; type: ADME, organism-based, Macaca fascicularis; design: dose 5 mg/kg, route intravenous; settings: read-out: Drug recovery
[28] = Ratio of AUC (0 to 8 hrs) in Crj:CD rat kidney to AUC (0 to 8 hrs) in Crj:CD rat serum at 5 mg/kg, po; type: ADME, organism-based; design: dose 5 mg/kg, route oral; settings: read-out: Ratio AUC
[29] = Ratio of AUC (0 to 8 hrs) in Crj:CD rat liver to AUC (0 to 8 hrs) in Crj:CD rat serum at 5 mg/kg, po; type: ADME, organism-based; design: dose 5 mg/kg, route oral; settings: read-out: Ratio AUC
[30] = AUC (0 to 8 hrs) in Crj:CD rat kidney at 5 mg/kg, po; type: ADME, organism-based; design: time < 8 hr, dose 5 mg/kg, route oral
[31] = AUC (0 to 8 hrs) in Crj:CD rat liver at 5 mg/kg, po; type: ADME, organism-based; design: time < 8 hr, dose 5 mg/kg, route oral
[32] = Ratio of AUC (0 to 8 hrs) in Crj:CD rat lung to AUC (0 to 8 hrs) in Crj:CD rat serum at 5 mg/kg, po; type: ADME, organism-based; design: dose 5 mg/kg, route oral; settings: read-out: Ratio AUC
[33] = AUC (0 to 8 hrs) in Crj:CD rat lung at 5 mg/kg, po; type: ADME, organism-based; design: time < 8 hr, dose 5 mg/kg, route oral
[34] = Cmax in Crj:CD rat serum at 5 mg/kg, po; type: ADME, organism-based; design: dose 5 mg/kg, route oral
[35] = AUC (0 to 8 hrs) in Crj:CD rat serum at 5 mg/kg, po; type: ADME, organism-based; design: time < 8 hr, dose 5 mg/kg, route oral
[36] = Plasma protein binding in human at 5 ug/mL by ultrafiltration method; type: ADME, cell-free; settings: read-out: PPB (converted)
[37] = Aqueous solubility of the compound; type: physicochemical
hERG (KCNH2) [38] = target: T1, hERG (KCNH2) (Homo sapiens, UniProt Q12809); test: Inhibition of human ERG expressed in CHOK1 cells at 100 uM; type: cell-based; settings: CHO-K1 cells expressing hERG
T1 sequence (Q12809 whole entry): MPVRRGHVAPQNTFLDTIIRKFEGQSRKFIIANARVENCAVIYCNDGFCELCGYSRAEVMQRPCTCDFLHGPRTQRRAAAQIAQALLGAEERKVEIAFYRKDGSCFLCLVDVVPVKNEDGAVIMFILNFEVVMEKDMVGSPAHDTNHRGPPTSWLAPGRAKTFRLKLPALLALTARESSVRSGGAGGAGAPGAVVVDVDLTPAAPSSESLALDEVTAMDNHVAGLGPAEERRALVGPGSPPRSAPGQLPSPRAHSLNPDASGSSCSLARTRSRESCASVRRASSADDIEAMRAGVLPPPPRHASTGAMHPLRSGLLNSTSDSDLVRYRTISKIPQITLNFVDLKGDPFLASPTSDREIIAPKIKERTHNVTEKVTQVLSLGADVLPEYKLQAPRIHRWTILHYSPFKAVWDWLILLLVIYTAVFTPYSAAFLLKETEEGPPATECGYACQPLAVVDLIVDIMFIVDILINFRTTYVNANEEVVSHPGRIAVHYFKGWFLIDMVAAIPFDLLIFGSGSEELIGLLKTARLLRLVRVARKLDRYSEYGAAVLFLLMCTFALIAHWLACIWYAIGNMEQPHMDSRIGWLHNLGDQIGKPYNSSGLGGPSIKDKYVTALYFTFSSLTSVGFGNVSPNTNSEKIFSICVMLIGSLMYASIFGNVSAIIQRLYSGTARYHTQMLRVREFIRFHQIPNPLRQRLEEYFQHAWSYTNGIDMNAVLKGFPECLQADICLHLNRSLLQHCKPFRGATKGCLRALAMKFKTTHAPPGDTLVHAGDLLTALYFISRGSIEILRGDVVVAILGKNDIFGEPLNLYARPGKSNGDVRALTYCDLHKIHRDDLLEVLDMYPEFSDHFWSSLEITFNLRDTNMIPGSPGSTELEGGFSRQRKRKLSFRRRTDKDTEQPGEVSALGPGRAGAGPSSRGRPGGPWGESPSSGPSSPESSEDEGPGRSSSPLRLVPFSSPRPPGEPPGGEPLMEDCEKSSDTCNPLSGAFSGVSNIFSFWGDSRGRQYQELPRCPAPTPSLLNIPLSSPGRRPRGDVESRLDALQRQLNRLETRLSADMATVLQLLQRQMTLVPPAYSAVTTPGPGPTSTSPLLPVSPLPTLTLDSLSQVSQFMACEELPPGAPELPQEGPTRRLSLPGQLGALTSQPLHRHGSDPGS

hERG (KCNH2) [39] = target: T1, hERG (KCNH2); test: Inhibition of human ERG expressed in CHOK1 cells at 30 uM; type: cell-based; settings: CHO-K1 cells expressing hERG
Cytochrome P450 3A4 = Cytochrome P450 3A4 (Homo sapiens, UniProt P08684); test: Inhibition of CYP3A4 in human liver microsomes assessed as 1'-hydroxylation of midazolam; type: ADME, Microsome
Cytochrome P450 3A4, sequence (P08684 whole entry): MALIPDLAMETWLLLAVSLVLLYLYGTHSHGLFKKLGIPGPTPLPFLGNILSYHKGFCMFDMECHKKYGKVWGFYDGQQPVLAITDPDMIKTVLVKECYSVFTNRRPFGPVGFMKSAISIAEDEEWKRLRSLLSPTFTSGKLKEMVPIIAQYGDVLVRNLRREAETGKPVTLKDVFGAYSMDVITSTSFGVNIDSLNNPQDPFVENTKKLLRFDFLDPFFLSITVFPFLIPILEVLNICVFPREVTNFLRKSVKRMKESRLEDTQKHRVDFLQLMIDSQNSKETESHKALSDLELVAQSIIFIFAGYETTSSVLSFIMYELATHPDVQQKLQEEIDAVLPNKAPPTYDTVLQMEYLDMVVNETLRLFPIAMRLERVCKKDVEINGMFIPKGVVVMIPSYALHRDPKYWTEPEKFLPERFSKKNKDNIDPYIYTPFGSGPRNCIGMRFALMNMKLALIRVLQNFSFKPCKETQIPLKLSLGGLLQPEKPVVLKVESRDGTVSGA

Streptococcus pneumoniae [40] = test: Antibacterial activity against levofloxacin-intermediate and levofloxacin-resistant Streptococcus pneumoniae after 18 hrs by microbroth dilution method; type: functional
Chlamydia pneumoniae [41] = test: Antibacterial activity against Chlamydophila pneumoniae CM-1 after 18 hrs by microbroth dilution method; type: functional; settings: CM-1, 18 h
Chlamydia pneumoniae [42] = test: Antibacterial activity against Chlamydophila pneumoniae AR39 after 18 hrs by microbroth dilution method; type: functional; settings: AR39, 18 h
[43] = system: Mycoplasmoides pneumoniae; test: Antibacterial activity against Mycoplasma pneumoniae ATCC 29085 after 18 hrs by microbroth dilution method; type: functional; settings: ATCC 29085, 18 h
[44] = system: Mycoplasmoides pneumoniae; test: Antibacterial activity against Mycoplasma pneumoniae 18-1 after 18 hrs by microbroth dilution method; type: functional; settings: 18-1, 18 h
Pseudomonas aeruginosa = test: Antibacterial activity against Pseudomonas aeruginosa PAO1 after 18 hrs by microbroth dilution method; type: functional; settings: PAO1, 18 h
Moraxella catarrhalis = test: Antibacterial activity against Moraxella catarrhalis ATCC 25238 after 18 hrs by microbroth dilution method; type: functional; settings: ATCC 25238, 18 h
Haemophilus influenzae = test: Antibacterial activity against Haemophilus influenzae ATCC 49247 after 18 hrs by microbroth dilution method; type: functional; settings: ATCC 49247, 18 h
Escherichia coli = test: Antibacterial activity against Escherichia coli NIHJ after 18 hrs by microbroth dilution method; type: functional
Klebsiella pneumoniae = test: Antibacterial activity against Klebsiella pneumoniae TYPE1 after 18 hrs by microbroth dilution method; type: functional; settings: TYPE1, 18 h
Bacillus subtilis [45] = test: Antibacterial activity against Bacillus subtilis IID 685 after 18 hrs by microbroth dilution method; type: functional; settings: IID 685, 18 h
Streptococcus pyogenes [46] = test: Antibacterial activity against Streptococcus pyogenes G-36 after 18 hrs by microbroth dilution method; type: functional; settings: G-36, 18 h
Enterococcus faecalis [47] = test: Antibacterial activity against Enterococcus faecalis ATCC 19433 after 18 hrs by microbroth dilution method; type: functional; settings: ATCC 19433, 18 h
Streptococcus pneumoniae [48] = test: Antibacterial activity against quinolone, penicillin-resistant Streptococcus pneumoniae 104835 after 18 hrs by microbroth dilution method; type: functional; settings: Streptococcus pneumoniae, 104835, 18 h
Streptococcus pneumoniae [49] = test: Antibacterial activity against penicillin-susceptible Streptococcus pneumoniae J24 after 18 hrs by microbroth dilution method; type: functional; settings: J24, 18 h
[50] = system: Staphylococcus epidermidis; test: Antibacterial activity against Staphylococcus epidermidis 56500 after 18 hrs by microbroth dilution method; type: functional; settings: Staphylococcus epidermidis, 56500, 18 h
Staphylococcus aureus [51] = test: Antibacterial activity against levofloxacin-resistant and methicillin-resistant Staphylococcus aureus 870307 after 18 hrs by microbroth dilution method; type: functional; settings: Staphylococcus aureus, 870307, 18 h
Staphylococcus aureus [52] = test: Antibacterial activity against Staphylococcus aureus FDA 209-P after 18 hrs by microbroth dilution method; type: functional
Chlamydia pneumoniae [53] = test: Ratio of MIC for levofloxacin to compound MIC for Chlamydophila pneumoniae CM-1; type: functional
[54] = Chloroform-phosphate buffer apparent partition coefficient of the compound, P at pH 7.4

COc1c(N2CC3(CC3)[C@](C)(N)C2)c(F)cc2c(=O)c(C(=O)O)cn([C@@H]3C[C@@H]3F)c12
Ratio (Chlamydia pneumoniae [1]): 4 | Ratio [2]: 4 | Ratio [3]: 4 | Ratio (Bacillus subtilis [4]): >4 | Ratio (Enterococcus faecalis [5]): >4 | Ratio (Streptococcus pyogenes [6]): >4 | Ratio (Streptococcus pneumoniae [7]): >4 | Ratio [8]: >4 | Ratio (Staphylococcus aureus [9]): >4 | Activity (Streptococcus pneumoniae [10]): Active | Activity (Streptococcus pneumoniae [11]): Active | Activity (Mus musculus [12]): Non-toxic | Activity (Mus musculus [13]): Non-toxic | Activity (Mus musculus [14]): Non-toxic | Activity (Mus musculus [15]): Non-toxic | Activity (Mus musculus [16]): Non-toxic | Activity (Mus musculus [17]): Non-toxic | half-life [18]: 4.8 h | AUC(0-t) at 8 h [19]: 23800 ng·h/mL | concentration at 5 min [20]: 3660 ng/mL | dose excreted at 24 h [21]: 61.3% | bioavailability [22]: 71% | half-life [23]: 4.8 h | Cmax [24]: 2200 ng/mL | AUC(0-t) at 24 h [25]: 16900 ng·h/mL | dose excreted at 24 h [26]: 32% | dose excreted at 24 h [27]: 69.8% | Kp [28]: 9 | Kp [29]: 10.4 | AUC(0-t) at 8 h [30]: 27800 ng·h/mL | AUC(0-t) at 8 h [31]: 32100 ng·h/mL | Kp [32]: 4.4 | AUC(0-t) at 8 h [33]: 13700 ng·h/mL | Cmax [34]: 1220 ng/mL | AUC(0-t) at 8 h [35]: 3080 ng·h/mL | fraction unbound at 5 ug/mL [36]: 0.653 | solubility [37]: 620 µg/mL (≈ 1480 µM) | inhibition at 100 µM (hERG (KCNH2) [38]): 2.7% | inhibition at 30 µM (hERG (KCNH2) [39]): 1.9% | inhibition (INH) (Cytochrome P450 3A4): Not Active | MIC50 (Streptococcus pneumoniae [40]): 1 µg/mL (≈ 2.38 µM) | MIC80 (Streptococcus pneumoniae [40]): 1 µg/mL (≈ 2.38 µM) | MIC90 (Streptococcus pneumoniae [40]): 1 µg/mL (≈ 2.38 µM) | MIC (Chlamydia pneumoniae [41]): 0.063 µg/mL (≈ 0.15 µM) | MIC (Chlamydia pneumoniae [42]): 0.125 µg/mL (≈ 0.298 µM) | MIC [43]: 0.12 µg/mL (≈ 0.286 µM) | MIC [44]: 0.12 µg/mL (≈ 0.286 µM) | MIC (Pseudomonas aeruginosa): 0.78 µg/mL (≈ 1.86 µM) | MIC (Moraxella catarrhalis): 0.05 µg/mL (≈ 0.119 µM) | MIC (Haemophilus influenzae): 0.012 µg/mL (≈ 0.0286 µM) | MIC (Escherichia coli): 0.012 µg/mL (≈ 0.0286 µM) | MIC (Klebsiella pneumoniae): 0.05 µg/mL (≈ 0.119 µM) | MIC (Bacillus subtilis [45]): 0.1 µg/mL (≈ 0.238 µM) | MIC (Streptococcus pyogenes [46]): 0.2 µg/mL (≈ 0.477 µM) | MIC (Enterococcus faecalis [47]): 0.2 µg/mL (≈ 0.477 µM) | MIC (Streptococcus pneumoniae [48]): 0.39 µg/mL (≈ 0.93 µM) | MIC (Streptococcus pneumoniae [49]): 0.05 µg/mL (≈ 0.119 µM) | MIC [50]: 0.1 µg/mL (≈ 0.238 µM) | MIC (Staphylococcus aureus [51]): 0.39 µg/mL (≈ 0.93 µM) | MIC (Staphylococcus aureus [52]): 0.025 µg/mL (≈ 0.0596 µM) | Ratio (Chlamydia pneumoniae [53]): 4 | P [54]: 19.2
